# Source: patent publication EP0063525A1, “Dibenzazepine tetracyclic derivatives, process for their preparation and pharmaceutical compositions containing them” (CENTRE NATIONAL DE LA RECHERCHE SCIENTIFIQUE (CNRS), priority 1981, dated 1982)
# Read-outs that look alike come from different tables or passages of the source.
# Key:
# [1] = acute toxicity in the mouse, intraperitoneal; type: in vivo, Souris; conditions: mouse, in vivo, ip, voie intrapéritonéale; for mortality at 48 h: read-out: Mortalité %
# Text: (§1) Les produits ont été administrés par voie intrapéritonéale à des souris femelles dont le poids variait de 18 à 30 g.
# (§2) Les animaux injectés ont été maintenus dans une salle thermostatée, nourris et abreuvés à volonté.
# (§3) La mortalité a été relevée à 1 heure, 4 heures, 24 heures et 48 heures.
# [2] = system: souris femelles; test: acute toxicity in the mouse, intraperitoneal; type: in vivo; conditions: voie intrapéritonéale, dead mice of the group
# Text: as §1, §2, §3
# [3] = system: chiens anesthésiés; test: cardiovascular toxicity in the anaesthetised dog, slow perfusion; type: in vivo, Chien; conditions: in vivo, 20 mg/kg
# Description: L'étude du composé 2 a été effectuée sur 7 chiens anesthésiés à des doses allant de 4 à 20 mg/kg en perfusion lente.
# [4] = system: Souris; test: antireserpine activity: reserpine hypothermia; type: in vivo; conditions: réserpine 5 mg/kg i.p. 17 h before, product i.p. 5 mg/kg
# How it was run: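 Mice in groups of 4 given reserpine 5 mg/kg i.p.; 17 hours later rectal temperature taken by thermocouple and test substance or solvent given i.p. Temperature measured hourly for 4 hours. Reported as mean temperature changes at 1, 2, 3 and 4 hours, their 4-hour sum, and percent rise versus solvent controls.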
# [5] = system: Souris; test: tetrabenazine hypothermia; type: in vivo; conditions: product i.p. 5 mg/kg 30 min before tétrabénazine 32 mg/kg i.v.
# [6] = system: Souris; test: tetrabenazine ptosis; type: in vivo; conditions: product i.p. 5 mg/kg 30 min before tétrabénazine 32 mg/kg i.v.
# [7] = system: Souris; test: analgesic activity, phenylbenzoquinone writhing technique; type: in vivo
# Description: Ce test consiste à rechercher une éventuelle protection vis-à-vis des crampes ou contorsions abdominales provoquées chez la Souris par injection intrapéritonéale de phénylbenzoquinone.
# Les souris sont réparties au hasard par lots de 4 dans des cristallisoirs.
# Le compose 2 a été injecté par voie intrapéritonéale, 30 minutes avant l'injection de la phénylbenzoquinone.
# Les crampes abdominales sont comptées pour chaque souris pendant 30 minutes à partir de la quinzième minute qui suit l'injection de l'agent algogène.
# [8] = system: Iléon de cobaye; test: spasmolytic action, anticholinergic effect (acetylcholine contraction); type: cell-based; conditions: acétylcholine 3 à 6 x 10^-5 mg/ml, six préparations; read-out: DE 50 (effet anticholinergique)
# Description: (§4) Les essais ont été effectués sur l'Iléon de cobaye maintenu en survie dans une solution de Tyrode oxygénée et thermostabilisée à 37° C suivant le méthode de MAGNUS.
# (§5) L'action spasmolytique du composé 2 a été étudiée en opposition avec les propriétés spasmogènes de l'acétylcholine, du chlorure de baryum, de l'histamine et de la sérotonine.
# Ces essais ont été effectués sur six préparations. L'effet inhibiteur du composé 2 a été recherché à l'encontre des propriétés contracturantes de l'acétylcholine utilisée à la concentration de 3 à 6 x 10^-5 mg/ml pour une cuve de 30 ml.
# [9] = system: Iléon de cobaye; test: spasmolytic action, anti barium chloride effect; type: cell-based; conditions: BaCl2 6 x 10^-2 mg/ml
# Description: as §4, §5
# Ces essais ont été effectués sur douze préparations. Six ont été utilisées pour la recherche d'inhibition de la contraction ba- rytique dite curative, les six autres pour les essais dits "préventif baryum".
# La concentration de BaCl2 utilisée comme agent contracturant est de 6 x 10^-2 mg/ml.
# [10] = system: Iléon de cobaye; test: spasmolytic action, antihistaminic effect; type: cell-based; conditions: histamine 0,5 à 3 x 10^-5 mg/ml, cinq préparations; read-out: DE 50 envers le spasme provoqué par l'histamine
# Description: as §4, §5
# Ces essais ont été pratiqués sur cinq préparations. L'histamine a été utilisée à la concentration de 0,5 à 3 x 10^-5 mg/ml.
# [11] = system: rat; test: medium-term toxicity in the rat, per os, 5 weeks; conditions: per os, 2, 10 et 50 mg/kg pendant 5 semaines
# Description: Cette étude a eu pour but de rechercher les effets éventuels du composé 2 sur les différents paramètres biologiques hématologi -ques et histologiques du rat après traitement per os à raison de 2,10 et 50 mg/kg pendant 5 semaines.
# [12] = 20 mg/kg/IP 30 min before phényl-benzoquinone 10 mg/kg/IP
# [13] = 50 mg/kg/IP 30 min before phényl-benzoquinone 10 mg/kg/IP
structure (smiles),measurement,setting,value
"CN(C)CCN1c2ccccc2C2ON=C(c3ccccc3)C2c2ccccc21 (stereo not drawn) [Composé 2, (β-diméthylaminoéthyl)-8 phényl-3 trihydro-3a,8, 12b (dibenzo [b,f]isoxazolo [4,5-d])azépine]",LD50 at 48 h,"[1]; souris femelles, read-out: DL 50",95 mg/kg
same,mortality at 48 h,[1]; 10 mg/kg,0%
same,mortality at 48 h,[1]; 50 mg/kg,0%
same,mortality at 48 h,[1]; 75 mg/kg,0%
same,mortality at 48 h,[1]; 100 mg/kg,60%
same,mortality at 48 h,[1]; 200 mg/kg,100%
same,Mortalité en 1 heure,[2]; 10 mg/kg,0
same,Mortalité en 48 h.,[2]; 10 mg/kg,0
same,Mortalité en 1 heure,[2]; 50 mg/kg,0
same,Mortalité en 48 h.,[2]; 50 mg/kg,0
same,Mortalité en 1 heure,[2]; 75 mg/kg,0
same,Mortalité en 48 h.,[2]; 75 mg/kg,0
same,Mortalité en 1 heure,[2]; 100 mg/kg,3
same,Mortalité en 48 h.,[2]; 100 mg/kg,3
same,Mortalité en 1 heure,[2]; 200 mg/kg,4
same,Mortalité en 48 h.,[2]; 200 mg/kg,5
same,toxicité sur le système cardiovasculaire comparativement à l'imipramine,[3],plus faible toxicité
same,change in vivo at 5 mg/kg,"[4]; ip, 4 h, read-out: % d'augmentation par rapport aux témoins",155%
same,variation de température T= 2h,[4],"+1,6"
same,variation de température T=3h,[4],"+0,7"
same,variation de température T=4h,[4],"+1,4"
same,inhibition in vivo at 5 mg/kg,"[5]; ip, 2 h, hypothermie, read-out: % de protection",3%
same,Température après tétrabénazine 30 minutes,[5],"-3,2"
same,Température après tétrabénazine 60 minutes,[5],"-2,6"
same,Température après tétrabénazine 90 minutes,[5],"-1,3"
same,Température après tétrabénazine 120 minutes,[5],"-1,3"
same,Température après tétrabénazine Total,[5],"-8,3"
same,inhibition in vivo at 5 mg/kg,"[6]; ip, 2 h, ptosis, read-out: % de protection",5%
same,Ptosis Total,[6],"28,6"
same,Ptosis 30 minutes,[6]; score 0-4 per eye,"4,8"
same,Ptosis 60 minutes,[6]; score 0-4 per eye,"7,8"
same,Ptosis 90 minutes,[6]; score 0-4 per eye,8
same,Ptosis 120 minutes,[6]; score 0-4 per eye,8
same,% de protection,[7]; [12],70%
same,Nombre de crampes en 30 minutes,[7]; [12],35
same,% de protection,[7]; [13],100%
same,Nombre de crampes en 30 minutes,[7]; [13],0
same,action protectrice envers le syndrome douloureux à la phénylbenzoquinone,[7]; in vivo,action protectrice importante
same,EC50,[8],0.5 µg/mL
same,IC50,"[9]; curative, read-out: concentration for inhibition de 50% de l'effet spasmogène, essais curatifs",1 µg/mL
same,IC50,"[9]; Cavia porcellus, preventive, read-out: concentration for inhibition de 50% de l'effet spasmogène, essais préventifs",0.5 µg/mL
same,EC50,[10],~0.05 µg/mL
same,paramètres biologiques hématologiques et histologiques du rat,[11],aucune modification
